In the supplement of paper PMC11451515:

Columns and labels:
Details in all cases: 48 h
NOMO1 [1] = test: cell viability relative to DMSO control; higher = less cytotoxic
Procedure, shortened: (§1)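 NOMO1, SEM and P12-Ichikawa leukemia cells spent at least four passages adapting to each medium before use. They were seeded at 500 cells/well (NOMO1, SEM) or 1000 cells/well (P12-Ichikawa) in 5 μl in 1536-well plates and pin-dosed with library compounds in DMSO at 11 threefold steps from 47 μM down to 0.79 nM. After 48 h at 37°C, CellTiter-Glo One luminescence was read. Viability is reported as a percentage of the DMSO wells on each plate, with cell-free wells as background.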

P12-Ichikawa [2] = test: as above
Procedure, shortened: as §1

SEM cells [3] = test: as above
Procedure, shortened: as §1

NOMO1 [4] = test: AUC of viability dose-response curve (% viability x log10 dose units); higher = less sensitive
Procedure, shortened: (§2)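 Library compounds in DMSO were applied for 48 h at 37°C at 11 threefold doses (47 μM to 0.79 nM) to medium-adapted leukemia cells in 1536-well plates holding 500 or 1000 cells/well. Luminescence from CellTiter-Glo One was normalised plate by plate against DMSO and cell-free wells. Area under the curve came from trapezoidal integration of a log-logistic fit, after scaling curves that rose above full viability and discarding those that failed quality control. The fit had four parameters and used log10 doses.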

P12-Ichikawa [5] = test: as above
Procedure, shortened: as §2

SEM cells [6] = test: as above
Procedure, shortened: as §2

CNC(=O)c1cc(Oc2ccc(NC(=O)Nc3cc(C(C)(C)C)nn3-c3ccc4ncccc4c3)c(F)c2)ccn1
cell viability [%]
Details	NOMO1 [1]	P12-Ichikawa [2]	SEM cells [3]
HPLM + 10% dialyzed FBS, 0.000781 µM	123	111	98.3
HPLM + 10% dialyzed FBS, 0.00234 µM	121	120	113
HPLM + 10% dialyzed FBS, 0.00702 µM	121	124	118
HPLM + 10% dialyzed FBS, 0.0211 µM	128	128	113
HPLM + 10% dialyzed FBS, 0.0632 µM	127	139	116
HPLM + 10% dialyzed FBS, 0.19 µM	170	134	102
HPLM + 10% dialyzed FBS, 0.569 µM	135	132	80.5
HPLM + 10% dialyzed FBS, 1.71 µM	155	131	66.6
HPLM + 10% dialyzed FBS, 5.12 µM	157	134	61.7
HPLM + 10% dialyzed FBS, 15.4 µM	156	139	52.2
HPLM + 10% dialyzed FBS, 46.1 µM	122	125	41.6
RPMI 5 mM glucose + 10% FBS, 0.000781 µM	–	–	108
RPMI 5 mM glucose + 10% FBS, 0.00234 µM	–	–	114
RPMI 5 mM glucose + 10% FBS, 0.00702 µM	–	–	107
RPMI 5 mM glucose + 10% FBS, 0.0211 µM	–	–	115
RPMI 5 mM glucose + 10% FBS, 0.0632 µM	–	–	122
RPMI 5 mM glucose + 10% FBS, 0.19 µM	–	–	99.2
RPMI 5 mM glucose + 10% FBS, 0.569 µM	–	–	85.3
RPMI 5 mM glucose + 10% FBS, 1.71 µM	–	–	61.3
RPMI 5 mM glucose + 10% FBS, 5.12 µM	–	–	50.5
RPMI 5 mM glucose + 10% FBS, 15.4 µM	–	–	39.2
RPMI 5 mM glucose + 10% FBS, 46.1 µM	–	–	26.2
RPMI 5 mM glucose + 10% dialyzed FBS, 0.000781 µM	119	–	–
RPMI 5 mM glucose + 10% dialyzed FBS, 0.00234 µM	124	–	–
RPMI 5 mM glucose + 10% dialyzed FBS, 0.00702 µM	125	–	–
RPMI 5 mM glucose + 10% dialyzed FBS, 0.0211 µM	140	–	–
RPMI 5 mM glucose + 10% dialyzed FBS, 0.0632 µM	151	–	–
RPMI 5 mM glucose + 10% dialyzed FBS, 0.19 µM	154	–	–
RPMI 5 mM glucose + 10% dialyzed FBS, 0.569 µM	160	–	–
RPMI 5 mM glucose + 10% dialyzed FBS, 1.71 µM	158	–	–
RPMI 5 mM glucose + 10% dialyzed FBS, 5.12 µM	155	–	–
RPMI 5 mM glucose + 10% dialyzed FBS, 15.4 µM	164	–	–
RPMI 5 mM glucose + 10% dialyzed FBS, 46.1 µM	123	–	–

AUC of viability dose-response curve
Details	NOMO1 [4]	P12-Ichikawa [5]	SEM cells [6]
HPLM + 10% dialyzed FBS	433	464	375
RPMI 5 mM glucose + 10% FBS	452	465	359
RPMI 5 mM glucose + 10% dialyzed FBS	450	469	335

CCCn1c(=O)c2[nH]c(C34CC5CC3C[C@@H](C5)C4)nc2n(CCC)c1=O
cell viability [%]
Details	NOMO1 [1]	P12-Ichikawa [2]	SEM cells [3]
HPLM + 10% dialyzed FBS, 0.000781 µM	105	111	102
HPLM + 10% dialyzed FBS, 0.00234 µM	62.9	107	84.8
HPLM + 10% dialyzed FBS, 0.00702 µM	92.9	100	103
HPLM + 10% dialyzed FBS, 0.0211 µM	112	97.8	109
HPLM + 10% dialyzed FBS, 0.0632 µM	96.2	112	110
HPLM + 10% dialyzed FBS, 0.19 µM	125	110	122
HPLM + 10% dialyzed FBS, 0.569 µM	104	107	115
HPLM + 10% dialyzed FBS, 1.71 µM	105	99.5	103
HPLM + 10% dialyzed FBS, 5.12 µM	107	93.6	97.9
HPLM + 10% dialyzed FBS, 15.4 µM	99.5	96.6	95.5
HPLM + 10% dialyzed FBS, 46.1 µM	114	96.1	97.8
RPMI 5 mM glucose + 10% FBS, 0.000781 µM	90.5	102	50.7
RPMI 5 mM glucose + 10% FBS, 0.00234 µM	92.6	113	44.7
RPMI 5 mM glucose + 10% FBS, 0.00702 µM	102	112	84.2
RPMI 5 mM glucose + 10% FBS, 0.0211 µM	96.5	110	94.6
RPMI 5 mM glucose + 10% FBS, 0.0632 µM	87.4	136	107
RPMI 5 mM glucose + 10% FBS, 0.19 µM	91.5	106	101
RPMI 5 mM glucose + 10% FBS, 0.569 µM	86.5	64.5	94.1
RPMI 5 mM glucose + 10% FBS, 1.71 µM	97.2	80.3	97.2
RPMI 5 mM glucose + 10% FBS, 5.12 µM	90.3	85.5	94.8
RPMI 5 mM glucose + 10% FBS, 15.4 µM	89.9	86.1	91.1
RPMI 5 mM glucose + 10% FBS, 46.1 µM	95.5	90	84.4
RPMI 5 mM glucose + 10% dialyzed FBS, 0.000781 µM	99	94.2	91.6
RPMI 5 mM glucose + 10% dialyzed FBS, 0.00234 µM	89.2	101	73.2
RPMI 5 mM glucose + 10% dialyzed FBS, 0.00702 µM	92.9	92.4	116
RPMI 5 mM glucose + 10% dialyzed FBS, 0.0211 µM	95.5	96.9	130
RPMI 5 mM glucose + 10% dialyzed FBS, 0.0632 µM	107	99.9	117
RPMI 5 mM glucose + 10% dialyzed FBS, 0.19 µM	98.2	100	110
RPMI 5 mM glucose + 10% dialyzed FBS, 0.569 µM	94.3	94.2	118
RPMI 5 mM glucose + 10% dialyzed FBS, 1.71 µM	95.6	98.7	109
RPMI 5 mM glucose + 10% dialyzed FBS, 5.12 µM	101	98	101
RPMI 5 mM glucose + 10% dialyzed FBS, 15.4 µM	94.8	93.2	91.5
RPMI 5 mM glucose + 10% dialyzed FBS, 46.1 µM	100	88.6	111

AUC of viability dose-response curve
Details	NOMO1 [4]	P12-Ichikawa [5]	SEM cells [6]
HPLM + 10% dialyzed FBS	454	462	477
RPMI 5 mM glucose + 10% FBS	442	410	416
RPMI 5 mM glucose + 10% dialyzed FBS	463	460	457

COc1cc2nc(-c3ccc(N4CCN(C)CC4)cc3)nc(NCCN3CCOCC3)c2cc1OC
cell viability [%]
Details	NOMO1 [1]	P12-Ichikawa [2]	SEM cells [3]
HPLM + 10% dialyzed FBS, 0.000781 µM	115	111	104
HPLM + 10% dialyzed FBS, 0.00234 µM	112	121	111
HPLM + 10% dialyzed FBS, 0.00702 µM	110	109	95.7
HPLM + 10% dialyzed FBS, 0.0211 µM	125	115	102
HPLM + 10% dialyzed FBS, 0.0632 µM	113	109	112
HPLM + 10% dialyzed FBS, 0.19 µM	97.9	110	44.1
HPLM + 10% dialyzed FBS, 0.569 µM	48.8	81.7	11.3
HPLM + 10% dialyzed FBS, 1.71 µM	35	57.9	8.34
HPLM + 10% dialyzed FBS, 5.12 µM	22.6	50	4.72
HPLM + 10% dialyzed FBS, 15.4 µM	18.8	23.2	4.43
HPLM + 10% dialyzed FBS, 46.1 µM	1.8	3.38	2.62
RPMI 5 mM glucose + 10% FBS, 0.000781 µM	102	113	108
RPMI 5 mM glucose + 10% FBS, 0.00234 µM	103	120	115
RPMI 5 mM glucose + 10% FBS, 0.00702 µM	99	108	91
RPMI 5 mM glucose + 10% FBS, 0.0211 µM	94.5	113	111
RPMI 5 mM glucose + 10% FBS, 0.0632 µM	98.7	116	107
RPMI 5 mM glucose + 10% FBS, 0.19 µM	100	111	107
RPMI 5 mM glucose + 10% FBS, 0.569 µM	84	104	41.1
RPMI 5 mM glucose + 10% FBS, 1.71 µM	47	67	14.1
RPMI 5 mM glucose + 10% FBS, 5.12 µM	18.1	36.7	7.04
RPMI 5 mM glucose + 10% FBS, 15.4 µM	9.07	5.75	3.02
RPMI 5 mM glucose + 10% FBS, 46.1 µM	2.08	2.84	2.56
RPMI 5 mM glucose + 10% dialyzed FBS, 0.000781 µM	114	113	114
RPMI 5 mM glucose + 10% dialyzed FBS, 0.00234 µM	111	108	106
RPMI 5 mM glucose + 10% dialyzed FBS, 0.00702 µM	103	118	107
RPMI 5 mM glucose + 10% dialyzed FBS, 0.0211 µM	107	103	102
RPMI 5 mM glucose + 10% dialyzed FBS, 0.0632 µM	111	106	111
RPMI 5 mM glucose + 10% dialyzed FBS, 0.19 µM	95	106	81.7
RPMI 5 mM glucose + 10% dialyzed FBS, 0.569 µM	63.7	96.3	29.3
RPMI 5 mM glucose + 10% dialyzed FBS, 1.71 µM	28.3	65.8	10.7
RPMI 5 mM glucose + 10% dialyzed FBS, 5.12 µM	11.1	22.5	5.08
RPMI 5 mM glucose + 10% dialyzed FBS, 15.4 µM	7.69	5.42	3.57
RPMI 5 mM glucose + 10% dialyzed FBS, 46.1 µM	1.71	2.71	2.59

AUC of viability dose-response curve
Details	NOMO1 [4]	P12-Ichikawa [5]	SEM cells [6]
HPLM + 10% dialyzed FBS	300	340	248
RPMI 5 mM glucose + 10% FBS	336	350	290
RPMI 5 mM glucose + 10% dialyzed FBS	302	345	271
